Laboratory results reported in PubChem BioAssay (NCI).
Values joined by “and” are separate entries in the source; they are usually repeats but may differ in a detail not shown here. Equal values may be shown once.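 Five compound concentrations were applied to cells in 96-well plates for 48 hours; endpoints were derived by simple linear interpolation of the resulting dose-response curve. Abbreviation: GI50, concentration required for 50% inhibition of growth. Definition used: TGI = concentration required for complete inhibition of growth.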

Legend:
Experiment in all cases: NCI tumour cell line growth inhibition, 48 h
[1] = system: MDA-MB-231 breast
[2] = system: MDA-MB-435
[3] = system: MDA-N
[4] = system: NCI/ADR-RES ovarian
[5] = system: PC-3 prostate
[6] = system: DLD-1 colon
[7] = system: SNB-78 CNS
[8] = system: LXFL 529 NSCLC

Molecule `O=C1c2cccnc2-c2nc(-c3ccncc3)cc3c2c1nc1ccccc13` has a GI50 [1] of 14.3 µM, a TGI [1] of 50.1 µM and a GI50 [2] of 15.5 µM. It also gave a TGI [2] of 30.1 µM, a GI50 [3] of 19.9 µM and a TGI [3] of 35.9 µM. It also gave a GI50 [4] of 9.63 µM, a TGI [4] of 24.8 µM and a GI50 [5] of 16.1 µM. It also gave a TGI [5] of 61.9 µM.

For `CC1(C)OC2COC3(CNO)OC(C)(C)OC3C2O1` (centres undefined), the TGI [6] was > 100 µM and the TGI [7] was > 100 µM.

For `CC1CCCc2c1nn(C(=O)/C=C(\N)c1ccccc1)c2N` (centres undefined), the GI50 [1] was 28.3 µM, the TGI [1] was > 100 µM and the GI50 [2] was 10.7 µM. For the same molecule, the TGI [2] was 26.5 µM, the GI50 [4] was 6.03 µM and the TGI [4] was 39.4 µM. For the same molecule, the GI50 [5] was 6.54 µM and the TGI [5] was > 100 µM.

With `O=S(=O)(CCOCc1ccc(-c2ccc3ncnc(Nc4ccc(OCc5cccc(F)c5)c(Cl)c4)c3c2)o1)c1ccccc1` the GI50 [1] was > 25 µM, the TGI [1] was > 25 µM and the GI50 [2] was > 25 µM. For the same molecule, the TGI [2] was > 25 µM, the GI50 [4] was > 25 µM and the TGI [4] was > 25 µM. For the same molecule, the GI50 [5] was > 25 µM and the TGI [5] was > 25 µM.

With `O=C1C=C(O)c2[nH]c(=O)ccc2C1=O` the TGI [6] was > 100 µM and the TGI [7] was > 100 µM.

Molecule `O=C(/C=C/c1ccccc1)CC(c1ccccc1)N1CCOCC1` (centres undefined) has a GI50 [1] of 2.64 µM, a TGI [1] of 6.95 µM and a GI50 [2] of 1.91 µM. The TGI [2] was 4.58 µM, the GI50 [4] was 3.37 µM and the TGI [4] was 16.3 µM. For the same molecule, the GI50 [5] was 4.54 µM and the TGI [5] was 19.1 µM.

For `Cc1ccc2c(c1)Sc1ccc(N=NN(C)C)cc1N2C`, the TGI [1] was > 100 µM, the TGI [2] was > 100 µM and the TGI [3] was > 100 µM. The TGI [4] was > 100 µM and the TGI [5] was > 100 µM.

In the case of `CCN(CC)CCNC(=O)c1c(C)[nH]c(/C=C2\C(=O)Nc3ccc(F)cc32)c1C`, the GI50 [1] is reported as 7.2 µM and 3.26 µM and 3.52 µM, the TGI [1] is reported as > 10 µM and 6.68 µM and 14.5 µM and the GI50 [2] is reported as 2.8 µM and 1.63 µM and 1.78 µM. The TGI [2] was > 10 µM and 5.1 µM and 8.49 µM, the GI50 [4] was > 10 µM and 4.48 µM and 5.31 µM and the TGI [4] was > 10 µM and 13.4 µM and 17.9 µM. The GI50 [5] was 1.84 µM and 3.82 µM and 2.9 µM and the TGI [5] was > 10 µM and 20 µM and 14.5 µM.

In the case of `Cc1ncc(C(=O)Nc2ccc(CN3CCN(C)CC3)c(C(F)(F)F)c2)cc1C#Cc1cnc(NC2CC2)c2ncccc12`, the GI50 [1] is reported as 0.582 µM, the TGI [1] is reported as 1.12 µM and the GI50 [2] is reported as 0.513 µM. The TGI [2] was 0.963 µM, the GI50 [4] was 2.32 µM and the TGI [4] was 5.28 µM. It also gave a GI50 [5] of 0.597 µM and a TGI [5] of 1.17 µM.

`O=c1ncccn1C1C=C(CO)C(O)C1O` (centres undefined) was tested, and the TGI [6] was > 50 µM, the TGI [8] was > 50 µM and the TGI [7] was > 50 µM.

In the case of `O=S1(=O)NCCCN1CCNc1nccc(-c2c(-c3cccc(O)c3)nc3sccn23)n1`, the GI50 [1] is reported as 16.1 µM, the TGI [1] is reported as > 100 µM and the GI50 [2] is reported as 0.563 µM. The TGI [2] was > 100 µM, the GI50 [4] was > 100 µM and the TGI [4] was > 100 µM. For the same molecule, the GI50 [5] was 45 µM and the TGI [5] was > 100 µM.

For `Cc1nnc(N/N=C(/C(=O)C(C#N)c2ccccc2)C(C#N)c2ccccc2)n1N` (centres undefined), the TGI [6] was 59.9 µM, the TGI [8] was 10.6 µM and the TGI [7] was > 90 µM.

`NC(N)=NS(=O)(=O)c1ccc(NC(=O)c2cccc3c(Nc4ccc(S(N)(=O)=O)cc4)c4ccccc4nc23)cc1` was tested, and the TGI [6] was > 100 µM, the TGI [8] was > 100 µM and the TGI [7] was > 100 µM.

`NC(=O)C1(N2CCCCC2)CCN(CCCC(=O)c2ccc(F)cc2)CC1` was tested, and the GI50 [1] was 3.56 µM, the TGI [1] was > 71.8 µM and the GI50 [2] was 0.07 µM. The TGI [2] was 0.396 µM, the GI50 [4] was 29 µM and the TGI [4] was > 100 µM. The GI50 [5] was 2.33 µM and the TGI [5] was > 100 µM.
